Data from ChEMBL document CHEMBL4118044, “Manzamine Alkaloids from an Acanthostrongylophora sp. Sponge” (J Nat Prod, 2017).
In brackets after ≈: the same amount, converted by molar mass.

Assays:
Kocuria rhizophila = assay: Antibacterial activity against Kocuria rhizophila NBRC 12708 after 24 hrs by serial two fold dilution method; assay type: functional; conditions: NBRC 12708, 24 h
Escherichia coli = assay: Antibacterial activity against Escherichia coli ATCC 35270 after 24 hrs by serial two fold dilution method; assay type: functional; conditions: ATCC 35270, 24 h
Proteus hauseri = assay: Antibacterial activity against Proteus hauseri NBRC 3851 after 24 hrs by serial two fold dilution method; assay type: functional; conditions: NBRC 3851, 24 h
Sortase A = target: T1, Sortase A (Staphylococcus aureus, UniProt Q9S446); assay: Inhibition of Staphylococcus aureus ATCC 6538p SortA expressed in Escherichia coli using Dabcyl-QALPETGEE-Edans as substrate after 1 hr by fluorescence spectrophotometric method
T1 sequence (Q9S446 whole entry): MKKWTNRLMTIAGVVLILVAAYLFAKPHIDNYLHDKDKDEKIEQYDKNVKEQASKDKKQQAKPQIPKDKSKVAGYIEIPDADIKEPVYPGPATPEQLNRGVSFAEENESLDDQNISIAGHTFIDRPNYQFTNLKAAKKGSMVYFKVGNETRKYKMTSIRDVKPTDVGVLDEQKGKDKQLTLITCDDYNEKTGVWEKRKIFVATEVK

[1] = Inhibition of Magnaporthe grisea Guy 11 ICL; set-up: species or system Pyricularia grisea
A549 = assay: Cytotoxicity against human A549 cells by MTT assay; assay type: functional; conditions: read-out: LC50 (the source's name)
K562 = assay: Cytotoxicity against human K562 cells by MTT assay; assay type: functional; conditions: read-out: LC50 (the source's name)
Staphylococcus aureus = assay: Antibacterial activity against Staphylococcus aureus ATCC 6538p after 24 hrs by serial two fold dilution method; assay type: functional
Bacillus spizizenii = assay: Antibacterial activity against Bacillus subtilis ATCC 6633 after 24 hrs by serial two fold dilution method; assay type: functional; conditions: ATCC 6633, 24 h
[2] = target: Sodium/potassium-transporting ATPase; assay: Inhibition of KCl-stimulated Na+/K+-ATPase in human placental membrane vesicles measured for 60 secs by 3-O-methylfluorescein phosphate dye based fluorometric method; assay type: cell membranes, Placenta
Salmonella typhimurium = assay: Antibacterial activity against Salmonella enterica ATCC 14028 after 24 hrs by serial two fold dilution method; assay type: functional, Salmonella enterica subsp. enterica serovar Typhimurium; conditions: ATCC 14028, 24 h

| Compound | MIC (Kocuria rhizophila) [µg/mL] | MIC (Escherichia coli) [µg/mL] | MIC (Proteus hauseri) [µg/mL] | IC50 (Sortase A) [µM] | IC50 [1] [µM] | CC50 (A549) [µM] | CC50 (K562) [µM] | MIC (Staphylococcus aureus) [µg/mL] | MIC (Bacillus spizizenii) [µg/mL] | IC50 [2] [µM] | MIC (Salmonella typhimurium) [µg/mL] |
| --- | --- | --- | --- | --- | --- | --- | --- | --- | --- | --- | --- |
| O[C@@H]1CC[C@@]23C[C@]45CN6CCCC/C=C\CC[C@](O)(C=C(c7nccc8c7[nH]c7ccccc78)[C@@H]4CC6)[C@@H]5N2CC[C@@H]1O[C@@]12CC[C@@H](O3)[C@@H](O)CCN1[C@@H]1[C@]3(CN4CCCC/C=C\CC[C@]1(O)C=C(c1nccc5c1[nH]c1ccccc15)[C@@H]3CC4)C2 | 1.6 (≈ 1.38 µM) | > 100 | > 100 | > 150 | 27 | 13 | 12 | > 100 | 1.6 (≈ 1.38 µM) | > 150 | 0.78 (≈ 0.672 µM) |
| C1=C\CC[C@]23O[C@H]2[C@@H](c2nccc4c2[nH]c2ccccc24)[C@@H]2CCN(CCCC/1)C[C@@]21CCCCCCCCN[C@H]13 | 100 (≈ 181 µM) | > 100 | > 100 | > 150 | > 150 | 6.5 | 9.6 | > 100 | 100 (≈ 181 µM) | > 150 | 50 (≈ 90.4 µM) |
| Cl.[O-][n+]1ccc2c([nH]c3ccccc32)c1C1=C[C@@]2(O)CC/C=C\CCCCN3CC[C@@H]1[C@]1(CC/C=C\CCCCN[C@H]12)C3 | > 100 | > 100 | > 100 | 81 | 26 | 4.7 | 8.1 | 32 | > 100 | > 150 | 32 |
| O[C@H]1/C=C\[C@H]2C[C@]34CN5CCCC/C=C\CC[C@](O)(C=C(c6nccc7c6[nH]c6ccccc67)[C@@H]3CC5)[C@@H]4N2CCC1 | 6.3 (≈ 11.2 µM) | > 100 | 13 (≈ 23 µM) | > 150 | 140 | 5.8 | 7.2 | 25 (≈ 44.3 µM) | 6.3 (≈ 11.2 µM) | > 150 | 1.6 (≈ 2.83 µM) |
| Cl.[O-][N+]1=C(C2=C[C@@]3(O)CC/C=C\CCCCN4CC[C@@H]2[C@]2(CC/C=C\CCCCN[C@H]23)C4)c2[nH]c3ccccc3c2CC1 | 64 | > 100 | 32 | > 150 | > 150 | 5.7 | 9.5 | 32 | 64 | 110 | > 100 |
| O[C@]12C=C(c3nccc4c3[nH]c3ccccc34)[C@@H]3CCN(CCCC/C=C\CC1)C[C@@]31C[C@@H]3C=C[C@H]4CCC[N@+]43[C@H]12.[Cl-] | 16 | 64 | 8 | – | > 150 | 4.6 | 7.2 | 8 | 32 | > 150 | 16 |
| Cn1cncc1C(=O)c1nccc2c1[nH]c1ccccc12 | 25 (≈ 90.5 µM) | > 100 | > 100 | > 150 | > 150 | 12 | 13 | > 100 | 50 (≈ 181 µM) | > 150 | 25 (≈ 90.5 µM) |
| Cn1cncc1C(=O)C1=NCCc2c1[nH]c1ccccc21 | 25 (≈ 89.8 µM) | > 100 | 50 (≈ 180 µM) | > 150 | 75 | 9.9 | 9.2 | 50 (≈ 180 µM) | 25 (≈ 89.8 µM) | > 150 | 6.3 (≈ 22.6 µM) |
| O=C(O)CC[N+](=O)[O-] | – | – | – | – | 19 | – | – | – | – | – | – |
| O[C@@H]1CCCN2[C@@H](CC1)C[C@]13CN4CCCC/C=C\CC[C@](O)(C=C(c5nccc6c5[nH]c5ccccc56)[C@@H]1CC4)[C@H]23 [32,33-DIHYDRO-31-HYDROXYMANZAMINE A] | 13 (≈ 22.9 µM) | > 100 | 100 (≈ 176 µM) | > 150 | 68 | 8.2 | 8.4 | 50 (≈ 88.2 µM) | 25 (≈ 44.1 µM) | > 150 | 1.6 (≈ 2.82 µM) |
| CC1(C)S[C@@H]2[C@H](NC(=O)[C@H](N)c3ccccc3)C(=O)N2[C@H]1C(=O)O [AMPICILLIN] | 0.39 (≈ 1.12 µM) | 6.3 (≈ 18 µM) | 1.6 (≈ 4.58 µM) | – | – | – | – | 0.39 (≈ 1.12 µM) | 0.78 (≈ 2.23 µM) | – | 0.39 (≈ 1.12 µM) |
| COc1cccc2c1C(=O)c1c(O)c3c(c(O)c1C2=O)C[C@@](O)(C(=O)CO)C[C@@H]3O[C@H]1C[C@H](N)[C@H](O)[C@H](C)O1 [DOXORUBICIN] | – | – | – | – | – | 0.92 | 1.1 | – | – | – | – |
| O[C@]12C=C(c3nccc4c3[nH]c3ccccc34)[C@@H]3CCN(CCCC/C=C\CC1)C[C@@]31C[C@@H]3/C=C\CCCCN3[C@H]12 [MANZAMINE A] | 50 (≈ 91.1 µM) | > 100 | > 100 | > 150 | 140 | 8.3 | 11 | > 100 | 50 (≈ 91.1 µM) | > 150 | 3.1 (≈ 5.65 µM) |
